From ChEMBL document CHEMBL4004842, “Design, synthesis and biological evaluation of novel non-peptide boronic acid derivatives as proteasome inhibitors” (Eur J Med Chem, 2017) come the findings set out here.

Activity calls are given as the source filed them. The calls are words filed in the database; no cut-off is given here.

Data set [1] addresses T1, Proteasome Macropain subunit MB1 (Homo sapiens) (UniProt P28074).
T1 sequence (whole entry): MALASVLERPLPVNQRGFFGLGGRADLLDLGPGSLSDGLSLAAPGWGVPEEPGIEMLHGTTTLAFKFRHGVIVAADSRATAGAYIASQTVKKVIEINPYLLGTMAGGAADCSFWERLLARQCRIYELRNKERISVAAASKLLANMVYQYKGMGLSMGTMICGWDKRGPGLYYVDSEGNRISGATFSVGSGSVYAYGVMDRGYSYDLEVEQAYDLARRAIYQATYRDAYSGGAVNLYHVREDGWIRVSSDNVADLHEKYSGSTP
In words: Inhibition of chymotrypsin-like activity of human 20S proteasome at 100 nM using Suc-Leu-Leu-Val-Tyr-AMC as substrate by fluorescence assay relative to control.

Data set [2] addresses T1, Proteasome Macropain subunit MB1 (Homo sapiens). In words: Inhibition of chymotrypsin-like activity of human 20S proteasome at 1 uM using Suc-Leu-Leu-Val-Tyr-AMC as substrate by fluorescence assay relative to control.
The target of data set [3] is T2, Proteasome Macropain subunit MB1 (Homo sapiens, UniProt P28074).
T2 sequence (P28074 whole entry): T1 sequence (whole entry)
The experiment in a line: Inhibition of chymotrypsin-like activity of human 20S proteasome using Suc-Leu-Leu-Val-Tyr-AMC as substrate by fluorescence assay.

Data set [4] deals with T2, Proteasome Macropain subunit MB1. The experiment in a line: Inhibition of chymotrypsin-like activity of human LCL-derived 20S proteasome using Suc-LLVY-AMC as substrate preincubated with enzyme followed by substrate addition measured after 30 mins by fluorescence assay.
The next data set has as its system HL-60. The experiment in a line: Antiproliferative activity against human HL60 cells after 72 hrs by SRB assay. To be noted: HL-60, 72 h. It is filed as functional, cell-based. A general note: Sulforhodamine B stains cellular protein and so reports cell mass.
For another data set, the system named is RPMI-8226. The experiment in a line: Antiproliferative activity against human RPMI8226 cells after 72 hrs by SRB assay. It is filed as functional, cell-based. Particulars: RPMI-8226, 72 h.
Another data set deals with MDA-MB-231. In words: Antiproliferative activity against human MDA-MB-231 cells after 72 hrs by SRB assay. It is filed as functional, cell-based. Particulars: MDA-MB-231, 72 h.
For a further data set, the system named is A2780. In words: Antiproliferative activity against human A2780 cells after 72 hrs by SRB assay. It is filed as functional, cell-based. Particulars: A2780, 72 h.
Data set [5] is described as follows: Metabolic stability in Sprague-Dawley rat liver microsomes assessed as compound remaining at 20 uM preincubated for 5 mins followed by NADPH addition measured after 20 mins by HPLC analysis. It is filed as ADME, microsome. Particulars: read-out: Stability. In general terms: Microsomes from liver hold many membrane-bound enzymes, among them those of drug oxidation.

Another data set has as its system A549. In words: Antiproliferative activity against human A549 cells after 72 hrs by SRB assay. It is filed as functional, cell-based. To be noted: A549, 72 h.
The species named for a further data set is Homo sapiens. The experiment in a line: Inhibition of 20S proteasome activity in human MDA-MB-231 cells assessed as accumulation of ubiquitinated proteins at 50 nM by Western blot method. Type of data set: cell-based. (A western blot detects proteins with antibodies after separation by electrophoresis.)
A short description of data set [6]: Drug metabolism in human plasma administered as iv bolus dose after 30 mins. Type of data set: ADME, organism-based. Particulars: read-out: Drug metabolism.

For orientation: inhibition means the relative decrease from the control value, in per cent. The term IC50 denotes the concentration that gives 50% inhibition. High values mean a need for much substance, low ones inhibition by little substance.

Regarding `CC1=C(N[C@@H](C)C(=O)N[C@@H](CC(C)C)B(O)O)C(=O)c2ccccc2C1=O`, the inhibition is 52.3% in data set [1] and over 50% in [2].

Consider `CC(C)C[C@H](NC(=O)[C@H](C)NC1=C(Cl)C(=O)c2ccccc2C1=O)B(O)O`, for which the inhibition in [1] is 64.8%; in [2] it was over 50%.

For the compound `CC1=C(N[C@@H](CC(C)C)C(=O)N[C@@H](CC(C)C)B(O)O)C(=O)c2ccccc2C1=O`, the values for the inhibition in [1] and in data set [2] were 31.4% and over 50%, respectively.

For the compound `CC1=C(N[C@@H](Cc2ccccc2)C(=O)N[C@@H](CC(C)C)B(O)O)C(=O)c2ccccc2C1=O`, the inhibition in data set [1] was 84.7%; in data set [2] it was over 50%. In data set [3], this compound showed an IC50 of 25.9 nM.

Consider `CC1=C(N[C@H](C(=O)N[C@@H](CC(C)C)B(O)O)C(C)C)C(=O)c2ccccc2C1=O`, for which the results for the inhibition in data set [1] and in [2] were 42.3% and over 50%, respectively.

With `CC1=C(NCC(=O)N[C@@H](CC(C)C)B(O)O)C(=O)c2ccccc2C1=O`, the values for the inhibition in data set [1] and in [2] were 65.9% and over 50%, respectively.

Consider `CC(C)C[C@H](NC(=O)[C@@H](NC1=CC(=O)c2ccccc2C1=O)C(C)C)B(O)O`, for which the results for the inhibition in data set [1] and in data set [2] were 69.2% and over 50%, respectively.

Consider `CC(C)C[C@H](NC(=O)CNC1=C(Cl)C(=O)c2ccccc2C1=O)B(O)O`, for which the inhibition in [1] is 67.7%; in [2], over 50%.

For `CC(C)C[C@H](NC(=O)[C@@H](NC1=C(Cl)C(=O)c2ccccc2C1=O)C(C)C)B(O)O`, the inhibition in data set [1] was 47.4%; in [2], over 50%.

For the compound `CC(C)C[C@H](NC(=O)[C@H](C)NC1=CC(=O)c2ccccc2C1=O)B(O)O`, the inhibition in data set [1] was 67.5%; in [2], over 50%.

With `CC(C)C[C@H](NC(=O)[C@H](Cc1ccccc1)NC1=C(Cl)C(=O)c2ccccc2C1=O)B(O)O`, the inhibition in [1] was 86.7%; in data set [2] it was over 50%. In addition, the IC50 in data set [3] stood at 24.6 nM.

Consider `CC(C)C[C@H](NC(=O)[C@H](CC(C)C)NC1=CC(=O)c2ccccc2C1=O)B(O)O`, for which the inhibition was 79.8% in [1] and over 50% in [2]. Further, inhibition in data set [3] was half-maximal at 44.3 nM (IC50).

`CC(C)C[C@H](NC(=O)[C@H](CC(C)C)NC1=C(Cl)C(=O)c2ccccc2C1=O)B(O)O`: the figures for the inhibition in data set [1] and in data set [2] were 43.5% and over 50%, respectively.

In [4], `C[C@@H](CO)NC(=O)c1ccccc1O` had a 50% inhibitory concentration (IC50) of 24.8 µM.

`CC(C)C[C@H](NC(=O)[C@H](Cc1ccccc1)NC(=O)c1cnccn1)B(O)O` [BORTEZOMIB]: the IC50 with HL-60 was determined as 3.2 nM; in the data set on RPMI-8226 it was 6.7 nM; with MDA-MB-231, 6.5 nM; in the data set on A2780 it was 28.9 nM; in the data set with A549, 2.5 nM. The remaining at 20 min, 20 µM in data set [5] is 44%.

For the compound `CC(C)C[C@H](NC(=O)[C@H](Cc1ccccc1)NC1=CC(=O)c2ccccc2C1=O)B(O)O`, the inhibition was 90.3% in data set [1] and over 50% in data set [2]. In addition, the IC50 was 11.4 nM in data set [3]; 1110 nM in the data set with HL-60; 1090 nM in the data set on RPMI-8226; 38.3 nM in the data set on MDA-MB-231; 470 nM with A2780; 679 nM in the data set with A549. Also, in the data set listed under Homo sapiens, the inhibition entry was “Active”. Moreover, the remaining at 20 min, 20 µM in data set [5] came to 60%.

In turn, `O=CN(O)CCC[C@@H](NC(=O)[C@H](CO)NC(=O)[C@@H]1COC(c2ccccc2O)=N1)C(=O)NCCC(=O)N[C@@H]1CCCN(O)C1=O` registered a half-inhibitory concentration (IC50) in [4] of 39.4 µM. This lies in the double-digit micromolar range.

As for `CC(C)C[C@H](NC(=O)CNC1=CC(=O)c2ccccc2C1=O)B(O)O`, the figures for the inhibition in data set [1] and in [2] were 84.9% and over 50%, respectively. Moreover, the IC50 in [3] came to 23.2 nM; in the data set on HL-60, 3590 nM; with RPMI-8226, 3460 nM; with MDA-MB-231, 1250 nM; in the data set on A2780, 3700 nM; in the data set with A549, 2890 nM. For the same compound, the inhibition entry in the data set listed under Homo sapiens was “Active”.

`CC(C)C[C@H](NC(=O)CNC(=O)c1cc(Cl)ccc1Cl)B(O)O` [IXAZOMIB]: the metabolised at 0.5 h in data set [6] worked out at 90%.
